Data as given in PMC7251097, “Aspartate/asparagine-β-hydroxylase: a high-throughput mass spectrometric assay for discovery of small molecule inhibitors” (Scientific Reports, 2020).
Read-outs that look alike come from different tables or passages of the source.

Target: T1, His6-AspH315–758 (human aspartate/asparagine-β-hydroxylase, AspH) (Homo sapiens, UniProt Q12797)
T1 construct: N-Terminally His6-tagged human AspH315–758 (His6-AspH315–758) was produced in E. coli BL21 (DE3) cells; made in house; host or cells: E. coli BL21 (DE3), pET-28a(+) vector
T1 sequence (Q12797 315-758): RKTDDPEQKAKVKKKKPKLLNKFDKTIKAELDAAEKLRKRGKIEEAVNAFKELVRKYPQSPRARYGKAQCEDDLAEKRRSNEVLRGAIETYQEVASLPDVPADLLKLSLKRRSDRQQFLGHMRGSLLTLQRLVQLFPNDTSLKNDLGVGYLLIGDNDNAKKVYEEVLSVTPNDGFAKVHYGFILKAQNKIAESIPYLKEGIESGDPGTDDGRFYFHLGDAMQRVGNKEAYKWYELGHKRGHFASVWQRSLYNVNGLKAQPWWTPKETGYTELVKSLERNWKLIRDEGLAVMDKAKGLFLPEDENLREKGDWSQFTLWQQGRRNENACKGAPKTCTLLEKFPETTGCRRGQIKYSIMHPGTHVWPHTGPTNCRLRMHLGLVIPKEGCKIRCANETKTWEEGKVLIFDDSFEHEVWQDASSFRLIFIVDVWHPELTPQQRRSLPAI
Assay: SPE-MS AspH inhibition assay (LOPAC screen at fixed 20 μM and IC50 dose-response), hydroxylation of cyclic peptide hFX-CP101–119
Format: biochemical

[1] = LOPAC compound at fixed 20 uM, plate 1, normalised to DMSO and 2,4-PDCA controls
[2] = LOPAC compound at fixed 20 uM, substrate conversion, plate 1
[3] = LOPAC compound at 20uM, plate 3, conversion of substrate peptide
[4] = LOPAC Plate 4, compound at 20 uM, substrate conversion
[5] = LOPAC compound at 20uM, plate 2, conversion of substrate peptide
[6] = LOPAC compound at 20uM, plate 2, normalised to DMSO and 2,4-PDCA controls

Compound: C=CCn1c(=O)c2c(nc(-c3ccc(S(=O)(=O)O)cc3)n2C)n(C)c1=O
- Plate 1 (% inhibition) [1]: -6.98%
- Plate 1 (% conversion) [2]: 38.22%

Compound: Cl.NC1(C(=O)O)CCCCC1
- Plate 1 (% inhibition) [1]: 1.04%
- Plate 1 (% conversion) [2]: 35.52%

Compound: Cl.NC1(C(=O)O)CC1
- Plate 1 (% inhibition) [1]: -3.97%

Compound: Clc1ccc(C(c2ccccc2Cl)C(Cl)Cl)cc1 (stereo not shown)
- Plate 1 (% inhibition) [1]: -5.18%
- Plate 1 (% conversion) [2]: 37.61%

Compound: COc1ccccc1N1CCNCC1.Cl
- % conversion: 37.50%
- % inhibition (20 µM): -3.01%

Compound: COc1ccc2c(c1)c(CC(=O)O)c(C)n2Cc1ccc(Cl)cc1
- Plate 1 (% inhibition) [1]: 5.27%
- Plate 1 (% conversion) [2]: 34.10%

Compound: CC1CNCCN1S(=O)(=O)c1cccc2cnccc12.Cl.Cl (stereo not shown)
- Plate 3 (% conversion) [3]: 5.68%

Compound: C[N+]1(C)CCN(c2ccccc2)CC1.[I-]
- Plate 2 (% conversion): 36.09%
- Plate 2 (% inhibition) (20 µM): -0.39%

Compound: CSc1nc(N)c2ncn([C@@H]3O[C@H](COP(=O)([O-])OP(=O)([O-])OP(=O)([O-])[O-])[C@@H](O)[C@H]3O)c2n1.[Na+].[Na+].[Na+].[Na+]
- Plate 1 (% inhibition) [1]: 63.66%
- Plate 1 (% conversion) [2]: 14.49%

Compound: Br.Br.N=C(N)SCCN
- Plate 1 (% inhibition) [1]: -13.77%
- Plate 1 (% conversion) [2]: 40.50%

Compound: CSc1nc(N)c2ncn([C@@H]3O[C@H](COP(=O)([O-])OP(=O)([O-])[O-])[C@@H](O)[C@H]3O)c2n1.O.[Na+].[Na+].[Na+]
- Plate 1 (% inhibition) [1]: 16.28%
- Plate 1 (% conversion) [2]: 30.40%

Compound: CN1C2CCC1CC(OC(=O)c1c[nH]c3ccccc13)C2.Cl (stereo not shown)
- % conversion: 31.98%

Compound: C[N+]1(C)C2CCC1CC(OC(=O)c1c[nH]c3ccccc13)C2.[I-] (stereo not shown)
- % conversion [4]: 36.85%

Compound: C[C@]12CC[C@@H](O)C[C@@H]1CC[C@@H]1[C@@H]2CC[C@]2(C)[C@@H](C(=O)CO)CC[C@@H]12
- Plate 3 (% conversion): 42.66%

Compound: Cl.N=C(N)c1ccc(CS(=O)(=O)F)cc1
- Plate 3 (% conversion): 34.27%

Compound: Cl.NCCc1ccc(S(=O)(=O)F)cc1
- Plate 1 (% conversion): 34.69%
- Plate 1 (% inhibition): 3.52%

Compound: COc1ccc2[nH]c3c(c2c1)CCNC3
- Plate 1 (% conversion): 36.98%
- Plate 1 (% inhibition) [1]: -3.29%

Compound: Cc1cccc(C#Cc2ccccc2)n1.Cl
- Plate 3 (% conversion): 40.82%

Compound: Oc1cc(-c2ccccc2)nc2nc(Cl)ccc12
- Plate 1 (% conversion): 39.07%
- Plate 1 (% inhibition): -9.52%

Compound: Nc1ncnc2c1c(-c1ccc(Oc3ccccc3)cc1)cn2C1CCCC1
- Plate 2 (% conversion) [5]: 45.34%
- Plate 2 (% inhibition) [6]: -28.02%

Compound: COCc1nc2c([nH]1)c(=O)n(C)c(=O)n2CC(C)C
- Plate 3 (% conversion) [3]: 35.26%

Compound: Cl.Nc1c2c(nc3ccccc13)CCCC2
- Plate 1 (% conversion): 23.39%

Compound: C[C@H]1CCC/C=C/[C@@H]2C[C@H](O)C[C@H]2[C@H](O)/C=C/C(=O)O1
- Plate 1 (% conversion): 38.82%
- Plate 1 (% inhibition): -8.79%

Compound: C[N+](C)(C)CCOP(=O)([O-])OP(=O)([O-])OC[C@H]1O[C@@H](n2ccc(N)nc2=O)[C@H](O)[C@@H]1O.[Na+]
- Plate 2 (% conversion) [5]: 36.80%
- Plate 2 (% inhibition) [6]: -2.53%

Compound: Cl.Nc1ccn([C@@H]2O[C@H](CO)[C@@H](O)[C@@H]2O)c(=O)n1
- Plate 1 (% inhibition) [1]: -2.68%
- Plate 1 (% conversion) [2]: 36.77%

Compound: Cl.O[Si](CCCN1CCCCC1)(c1ccc(F)cc1)C1CCCCC1 (stereo not shown)
- Plate 2 (% conversion) [5]: 40.91%
- Plate 2 (% inhibition) [6]: -14.81%

Compound: C[C@@H](N)Cc1cnc[nH]1.Cl.Cl
- Plate 2 (% conversion): 36.76%
- Plate 2 (% inhibition) (20 µM): -2.41%

Compound: COC(=O)[C@@H](N)Cc1ccc(O)c(O)c1.Cl
- Plate 2 (% conversion) [5]: 10.54%
- Plate 2 (% inhibition) [6]: 75.90%

Compound: COc1cccc(C(=O)NCCN2CCN(c3ccc(Cl)cc3)CC2)c1
- Plate 1 (% inhibition) [1]: -7.35%
- Plate 1 (% conversion) [2]: 38.34%

Compound: CNCCc1c[nH]c2ccc(O)cc12.O=C(O)C(=O)O
- Plate 3 (% conversion): 9.71%

Compound: Cc1ccc(S(=O)(=O)N[C@@H](Cc2ccccc2)C(=O)CCl)cc1
- % inhibition (LOPAC Plate 4, compound at 20 uM): -4.78%
- % conversion [4]: 38.10%

Compound: COC(=O)[C@@H](N)CCCN=C(N)N[N+](=O)[O-].Cl
- Plate 3 (% conversion) [3]: 34.54%

Compound: CCCCCCN(CCCCCC)C(=O)Cc1c(-c2ccc(F)cc2)[nH]c2ccccc12
- Plate 2 (% conversion): 35.52%
- Plate 2 (% inhibition) (20 µM): 1.31%

Compound: Cc1ccc(S(=O)(=O)N[C@@H](CCCCN)C(=O)CCl)cc1.Cl
- % conversion: 33.91%

Compound: Cl.NOCC(=O)O.NOCC(=O)O
- Plate 1 (% inhibition) [1]: -6.07%
- Plate 1 (% conversion) [2]: 37.91%

Compound: Nc1ncnc2c1ncn2[C@@H]1O[C@H](COP(=O)(O)OP(=O)(O)OP(=O)(O)OP(=O)(O)OC[C@H]2O[C@@H](n3cnc4c(N)ncnc43)[C@H](O)[C@@H]2O)[C@@H](O)[C@H]1O
- Plate 2 (% conversion) [5]: 27.58%
- Plate 2 (% inhibition) [6]: 25.01%

Compound: Cl.Cl.Fc1ccc([C@@H]2CCNC[C@H]2COc2ccc3c(c2)OCO3)cc1.Fc1ccc([C@@H]2CCNC[C@H]2COc2ccc3c(c2)OCO3)cc1.O
- Plate 1 (% inhibition) [1]: -22.48%
- Plate 1 (% conversion) [2]: 43.42%

Compound: Br.CCCN1CCc2cc(O)cc3c2[C@H]1Cc1ccc(O)c(O)c1-3
- Plate 2 (% conversion) [5]: 6.67%
- Plate 2 (% inhibition) [6]: 87.47%

Compound: Br.CN1CCc2cc(O)cc3c2[C@H]1Cc1ccc(O)c(O)c1-3
- Plate 2 (% conversion) [5]: 6.73%
- Plate 2 (% inhibition) [6]: 87.29%

Compound: C[C@H](O)[C@H](O)[C@H]1CNc2nc(N)[nH]c(=O)c2N1.Cl
- % conversion [4]: 25.86%

Compound: Nc1ncnc2c1ncn2[C@@H]1O[C@H](COP(=O)(O)CP(=O)(O)OP(=O)([O-])[O-])[C@@H](O)[C@H]1O.[Li+].[Li+]
- Plate 3 (% conversion) [3]: 17.86%

Compound: 5-Bromo-2-deoxyuridine
- Plate 1 (% conversion): 35.50%
- Plate 1 (% inhibition): 1.12%

Compound: 10058-F4
- Plate 1 (% conversion): 30.76%
- Plate 1 (% inhibition): 15.22%

Compound: COC(=O)C(N)Cc1ccc(Cl)cc1.Cl (racemic)
- Plate 1 (% inhibition) [1]: 1.48%
- Plate 1 (% conversion) [2]: 35.38%

Compound: CC(N)c1cccc(Cl)c1Cl.Cl (racemic)
- Plate 2 (% conversion): 38.94%
- Plate 2 (% inhibition) (20 µM): -8.91%

Compound: CC(N)(Cc1ccc(O)c(O)c1)C(=O)O (racemic)
- Plate 3 (% conversion) [3]: 9.94%

Compound: CCCCCCCCCC(=O)NC(CN1CCOCC1)[C@H](O)c1ccccc1.Cl (mixture of isomers)
- % conversion [4]: 45.09%

Compound: NC(Cc1cc(O)c(O)cc1O)C(=O)O (racemic) [6-Hydroxy-DL-DOPA, reference compound]
- Inhibition at 20 µM [%]: 103.1%
- Plate 2 (% conversion): 1.44%
- Plate 2 (% inhibition) (20 µM): 103.09%

Compound: CN1[C@H]2C[C@H](OC(=O)[C@H](CO)c3ccccc3)C[C@@H]1[C@@H](O)C2 (racemic) [(+/-)-Anisodamine]
- Plate 2 (% conversion): 36.39%
- Plate 2 (% inhibition) (20 µM): -1.30%

Compound: NC(CP(=O)(O)O)C(=O)O (racemic) [(±)-2-Amino-3-phosphonopropionic acid]
- Plate 1 (% conversion): 38.27%
- Plate 1 (% inhibition): -7.14%

Compound: NC(CCP(=O)(O)O)C(=O)O (racemic) [(±)-2-Amino-4-phosphonobutyric acid]
- Plate 1 (% conversion): 37.71%
- Plate 1 (% inhibition): -5.48%

Compound: NC(CCCP(=O)(O)O)C(=O)O (racemic) [(±)-2-Amino-5-phosphonopentanoic acid]
- Plate 1 (% conversion): 39.06%
- Plate 1 (% inhibition) [1]: -9.50%

Compound: Br.Oc1cc2c(c(Cl)c1O)CCNCC2c1ccccc1 (racemic) [(±)-6-Chloro-PB hydrobromide, reference compound]
- Inhibition at 20 µM [%] (AspH activity, fixed compound concentration 20 μM, initial LOPAC screen, 0.5%v/v DMSO): 98.8%
- % conversion [4]: 2.77%

Compound: Br.CCCN(CCC)C1CCc2ccc(O)cc2C1 (racemic) [(±)-7-Hydroxy-DPAT hydrobromide]
- Plate 2 (% conversion) [5]: 37.82%
- Plate 2 (% inhibition) [6]: -5.57%

Compound: CC1CCN=C(N)S1.Cl (racemic) [(±)-AMT hydrochloride]
- Plate 1 (% conversion): 36.89%
- Plate 1 (% inhibition): -3.04%

Compound: NCC(CC(=O)O)c1ccc(Cl)cc1 (racemic) [(±)-Baclofen]
- Plate 1 (% inhibition) [1]: -1.99%
- Plate 1 (% conversion) [2]: 36.54%
